Where two headings read alike, the source gives them in different places.

The test system of one assay is KM mice. The assay is described as follows: animal or person. Format: in vivo.
The next assay has as its system SD rats. The assay is described as follows: animal or person. It counts as in vivo.
[1] abbreviates: KM mice, single tail vein injection at 2×ED50, time from disappearance to recovery of righting reflex.
The mark [2] stands for this setting: KM mice, single tail vein injection at 2×ED50, time from recovery of righting reflex to free crawling.
The mark [3] stands for this setting: Mus musculus, KM mice (male, 18-22 g), injection via the tail vein, disappearance of righting reflex, read-out: ED50.
Where [4] appears, read: Rattus norvegicus, SD rats (male, 220-300 g), injection via the tail vein, disappearance of righting reflex, read-out: ED50.
Where [5] appears, read: SD rats, single tail vein injection at 2×ED50, time from disappearance to recovery of righting reflex.
The mark [6] stands for this setting: SD rats, single tail vein injection at 2×ED50, time from recovery of righting reflex to free crawling.
Where [7] appears, read: KM mice (male, 18-22 g), injection via the tail vein, disappearance of righting reflex.
The mark [8] stands for this setting: SD rats (male, 220-300 g), injection via the tail vein, disappearance of righting reflex.

The ED50 is the midpoint of the dose-response relation. `Cc1cnc2n1-c1ccc(Br)cc1C(c1ccccn1)=N[C@H]2CCC(=O)OCOC(=O)OC(C)C(C)C` (stereo partly shown) [Example 51]: the values for the 2ED50 duration in the assay with KM mice (setting [1]) and in the assay with SD rats (setting [5]) were more than 10 min and 3.09 min, respectively. Besides, the 2ED50 recovery time with KM mice (setting [2]) came to 2.39 min; in the assay with SD rats (setting [6]), 2.32 min. The Quality of recovery entry is “+++ (“+++” means 3-5 min)” with KM mice (KM mice, tail vein injection) and “+++ (“+++” means 3-5 min)” in the assay with SD rats (SD rats, tail vein injection). Moreover, the median effective dose (ED50) with KM mice (setting [3]) is 27.8 mg/kg; with SD rats (setting [4]), 6.5 mg/kg.
Regarding “(((((3-Methylbutane-2-yl)oxy)carbonyl)oxy) methyl 3-((4S)-9-bromo-8-fluoro-1-methyl-6- (pyridine-2-yl)-4H-benzo[f]imidazo [1,2-a][1,4]diaza-4-ylpropionate formate [Example 73]”, in the assay with KM mice (mouse, in vivo), the 2ED50 duration worked out at 3.33 min, the 2ED50 recovery time is 2.38 min, the ED50 is 26.3 mg/kg and the Quality of recovery result was “+++ (key: “+” means <1 mm; “++” means 1-3 min; “+++” means 3-5 min; “++++” means 5-10 min; “+++++” means >10 mm)”. Also, in the assay on SD rats (rat, in vivo), the “2ED50 duration” value came to 2.45 min, the 2ED50 recovery time was found to be 2.44 min, the median effective dose (ED50) stood at 5.2 mg/kg and the Quality of recovery entry is “++ (key: “+” means <1 mm; “++” means 1-3 min; “+++” means 3-5 min; “++++” means 5-10 min; “+++++” means >10 mm)”.
Consider `COC(=O)C1(OC(=O)CC[C@@H]2N=C(c3ccccn3)c3cc(Cl)c(C)c(C)c3-n3c(C)cnc32)CC1` [Example 79, 1-((3-((4S)-8-chloro-1,9,10-trimethyl-6-(pyridine-2-yl)-4H-benzo[f]imidazo[1,2-a][1,4]diaza-4-yl)propionyl)oxy) cyclopropane-1-carboxylate 1-naphthoate], for which the 2ED50 duration in the assay with KM mice (setting [1]) came out at 3.45 min; in the assay on SD rats (setting [5]), 2.48 min. In addition, the 2ED50 recovery time with KM mice (setting [2]) worked out at 1.38 min; in the assay on SD rats (setting [6]), 2.19 min. In addition, the Quality of recovery entry in the assay with KM mice (KM mice, tail vein injection) was “+++ (“+++” means 3-5 min)”; with SD rats (SD rats, tail vein injection) it was “+++ (“+++” means 3-5 min)”. The 50% effective dose (ED50) in the assay with KM mice (setting [3]) was 31.3 mg/kg; with SD rats (setting [4]) it was 6.6 mg/kg.
For the compound `COC(=O)OCOC(=O)CC[C@@H]1N=C(c2ccccn2)c2cc(Br)c(Br)cc2-n2c(C)cnc21` [Example 8], the 2ED50 duration in the assay on KM mice (setting [1]) was 5.23 min; in the assay on SD rats (setting [5]) it was 5.05 min. Further, the 2ED50 recovery time with KM mice (setting [2]) and with SD rats (setting [6]) was 2.18 min throughout. In addition, the Quality of recovery entry in the assay with KM mice (KM mice, tail vein injection) is recorded as “+++ (“+++” means 3-5 min)”; in the assay with SD rats (SD rats, tail vein injection), “++++ (“++++” means 5-10 min)”. The ED50 amounted to 27.5 mg/kg in the assay on KM mice (setting [3]) and 5.8 mg/kg in the assay with SD rats (setting [4]).
On to `C/C=C/C1CC(OCOC(=O)COC(=O)CC[C@@H]2N=C(c3ccccn3)c3cc(Br)c(Cl)cc3-n3c(C)cnc32)C(Br)CC1C(F)(F)F` (stereo partly drawn) [Example 84, 2-(((2-Bromo-5-((E)-propan-1-en-1-yl)-4-(trifluoromethyl)cyclohexyl)oxy)methoxy)-2-oxoethyl-3-((4S)-8-bromo-9-chloro-1-methyl-6-(pyridine-2-yl)-4H-benzo[f]imidazo[1,2-a][1,4]diaza-4-yl)propionate], for which the figures for the 2ED50 duration in the assay with KM mice (setting [1]) and in the assay with SD rats (setting [5]) were 3.16 min and 2.18 min, respectively. Also, the 2ED50 recovery time came to 2.17 min in the assay on KM mice (setting [2]) and 1.58 min with SD rats (setting [6]). Besides, the Quality of recovery result is “+++ (“+++” means 3-5 min)” in the assay on KM mice (KM mice, tail vein injection) and “++ (“++” means 1-3 min)” in the assay with SD rats (SD rats, tail vein injection). Also, the ED50 in the assay with KM mice (setting [3]) was found to be 28.8 mg/kg; in the assay with SD rats (setting [4]) it was 6.23 mg/kg.
As to `COC(=O)C(C)(C)OC(=O)CC[C@@H]1N=C(c2ccccn2)c2cc(Br)ccc2-n2c(C)cnc21` [Example 62, Methyl 2-((3-((4S)-8-bromo-1-methyl-6-(pyridine-2-yl)-4H-benzo[f]imidazo [1,2-a][1,4]diaza-4-yl)propionyl)oxy)-2-methylpropionate], the 2ED50 duration with KM mice (setting [1]) turned out to be 3.23 min; in the assay with SD rats (setting [5]), 1.08 min. The 2ED50 recovery time in the assay with KM mice (setting [2]) was 1.27 min; in the assay with SD rats (setting [6]), 2.14 min. The Quality of recovery entry in the assay on KM mice (KM mice, tail vein injection) is listed as “+++ (“+++” means 3-5 min)”; with SD rats (SD rats, tail vein injection), “+++ (“+++” means 3-5 min)”. The 50% effective dose (ED50) came out at 13.5 mg/kg in the assay with KM mice (setting [3]) and 1.3 mg/kg in the assay with SD rats (setting [4]).
As to `CCCOC(=O)OCOC(=O)CC[C@@H]1N=C(c2ccccn2)c2cc(Br)ccc2-n2c(C)cnc21` [Example 47], the results for the 2ED50 duration with KM mice (setting [1]) and in the assay on SD rats (setting [5]) were 3.90 min and 4.07 min, respectively. The figures for the 2ED50 recovery time with KM mice (setting [2]) and in the assay on SD rats (setting [6]) were 2.42 min and 2.38 min, respectively. Moreover, the Quality of recovery entry in the assay on KM mice (KM mice, tail vein injection) was “++++ (“++++” means 5-10 min)”; with SD rats (SD rats, tail vein injection) it was “++ (“++” means 1-3 min)”. Besides, the ED50 with KM mice (setting [3]) is 27 mg/kg; in the assay with SD rats (setting [4]), 6.2 mg/kg.
Regarding `Cc1cnc2n1-c1cc(Br)c(Br)cc1C(c1ccccn1)=N[C@H]2CCC(=O)OCOC(=O)OC(C(C)C)C(C)C` [Example 14], the values for the 2ED50 duration in the assay with KM mice (setting [1]) and in the assay on SD rats (setting [5]) were 6.42 min and 5.06 min, respectively. Besides, the 2ED50 recovery time is listed as 2.29 min in the assay on KM mice (setting [2]) and 2.39 min in the assay with SD rats (setting [6]). Besides, the Quality of recovery result with KM mice (KM mice, tail vein injection) is “+++ (“+++” means 3-5 min)”; in the assay with SD rats (SD rats, tail vein injection), “++ (“++” means 1-3 min)”. Moreover, the 50% effective dose (ED50) in the assay with KM mice (setting [3]) came out at 32 mg/kg; in the assay with SD rats (setting [4]) it was 6.9 mg/kg.
Turning to `CCOC(=O)C1(OC(=O)CC[C@@H]2N=C(c3ccccn3)c3cc(Cl)c(Cl)cc3-n3c(C)cnc32)CC1` [Example 69, Ethyl 1-((3-((4S)-8,9-dichloro-1-methyl-6-(pyridine-2-yl)-4H-benzo[f]imidazo[1,2-a][1,4]diaza-4-yl)propionyl)oxy) cyclopropane-1-carboxylate benzoic acid], in the assay with KM mice (Mus musculus), it took a dose of 23.8 mg/kg to reach the 50% effect level (ED50). For the same compound, in the assay with KM mice (mouse, in vivo), the 2ED50 duration came out at 3.45 min, the 2ED50 recovery time was determined as 2.38 min and the Quality of recovery entry is listed as “++++ (key: “+” means <1 mm; “++” means 1-3 min; “+++” means 3-5 min; “++++” means 5-10 min; “+++++” means >10 mm)”. The compound also returned a median effective dose (ED50) in the assay with SD rats (Rattus norvegicus) of 6.1 mg/kg. Besides, in the assay with SD rats (rat, in vivo), the “2ED50 duration” value worked out at 3.16 min, the 2ED50 recovery time is recorded as 2.48 min and the Quality of recovery entry is on record as “++ (key: “+” means <1 mm; “++” means 1-3 min; “+++” means 3-5 min; “++++” means 5-10 min; “+++++” means >10 mm)”.
Turning to `COC(=O)C1(OC(=O)CC[C@@H]2N=C(c3ccccn3)c3c(Cl)cc(OC(F)(F)F)cc3-n3c(C)cnc32)CC1.O=C(O)O` [Example 43], the median effective dose (ED50) with KM mice (setting [7]) was determined as 29.5 mg/kg; in the assay with SD rats (setting [8]), 6.5 mg/kg. Besides, the 2ED50 duration amounted to 6.01 min in the assay with KM mice (setting [1]) and 3.01 min in the assay on SD rats (setting [5]). In addition, the 2ED50 recovery time in the assay with KM mice (setting [2]) is listed as 2.13 min; in the assay with SD rats (setting [6]), 2.41 min. The Quality of recovery result is given as “++++ (“++++” means 5-10 min)” in the assay on KM mice (KM mice, tail vein injection) and “++ (“++” means 1-3 min)” with SD rats (SD rats, tail vein injection).
For `COC1N(C)CC(CC(OC(=O)CC[C@@H]2N=C(c3ccccn3)c3cc(OC(F)(F)F)cc(C)c3-n3c(C)cnc32)OC(=O)OC(C(C)C)C(C)C)CN1C` (stereo partly shown) [Example 83], the 2ED50 duration with KM mice (setting [1]) was determined as 3.26 min; with SD rats (setting [5]), 2.09 min. The 2ED50 recovery time with KM mice (setting [2]) worked out at 2.46 min; in the assay with SD rats (setting [6]), 2.09 min. Further, the Quality of recovery entry is “+++ (“+++” means 3-5 min)” with KM mice (KM mice, tail vein injection) and “+++ (“+++” means 3-5 min)” in the assay on SD rats (SD rats, tail vein injection). The ED50 in the assay on KM mice (setting [3]) turned out to be 30.1 mg/kg; with SD rats (setting [4]) it was 6.1 mg/kg.
As to `COC(=O)C1(OC(=O)CC[C@@H]2N=C(c3ccccn3)c3cc(Cl)c(Br)cc3-n3c(C)cnc32)CC1` [Example 45], the 2ED50 duration was 2.20 min in the assay on KM mice (setting [1]) and 3.01 min in the assay on SD rats (setting [5]). Also, the 2ED50 recovery time in the assay on KM mice (setting [2]) stood at 1.53 min; with SD rats (setting [6]), 2.00 min. Besides, the Quality of recovery entry in the assay on KM mice (KM mice, tail vein injection) is recorded as “++++ (“++++” means 5-10 min)”; with SD rats (SD rats, tail vein injection), “++ (“++” means 1-3 min)”. In addition, the ED50 came to 30 mg/kg in the assay with KM mice (setting [3]) and 7.1 mg/kg with SD rats (setting [4]).
With `CCOC(=O)OCOC(=O)CC[C@@H]1N=C(c2ccccn2)c2ccc(Cl)cc2-n2c(C)cnc21` [Example 36], the results for the 2ED50 duration with KM mice (setting [1]) and in the assay with SD rats (setting [5]) were 4.34 min and 3.14 min, respectively. The 2ED50 recovery time was found to be 1.49 min with KM mice (setting [2]) and 2.39 min in the assay on SD rats (setting [6]). The Quality of recovery entry was “+++ (“+++” means 3-5 min)” in the assay on KM mice (KM mice, tail vein injection) and “+++ (“+++” means 3-5 min)” in the assay with SD rats (SD rats, tail vein injection). Besides, the ED50 came to 27.8 mg/kg in the assay on KM mice (setting [3]) and 2.8 mg/kg in the assay with SD rats (setting [4]).
`COC(=O)CC[C@@H]1N=C(c2ccccn2)c2cc(Br)ccc2-n2c(C)cnc21` [Remimazolam, reference compound]: the ED50 came out at 40 mg/kg in the assay with KM mice (setting [7]) and 8.9 mg/kg with SD rats (setting [8]). The 2ED50 duration in the assay on KM mice (setting [1]) worked out at 8.58 min; in the assay on SD rats (setting [5]), 7.58 min. In addition, the 2ED50 recovery time is on record as 5.49 min with KM mice (setting [2]) and 6.46 min in the assay with SD rats (setting [6]). Further, the Quality of recovery result in the assay with KM mice (KM mice, tail vein injection) was “+++++ (“+++++” means >10 mm)”; with SD rats (SD rats, tail vein injection), “+++++ (“+++++” means >10 min)”.

Values taken from US12473291B2 (priority 2019, dated 2025).
